Test results as given in patent publication US10428062B2, “Geminal substituted aminobenzisoxazole compounds as agonists of α7-nicotinic acetylcholine receptors” (Forum Pharmaceuticals, Inc., priority 2015, dated 2019).
Where a name gives a salt, the structure may show the parent alone.

Target: human α7 nAChR (Homo sapiens, UniProt P36544)
Sequence (P36544 23-502): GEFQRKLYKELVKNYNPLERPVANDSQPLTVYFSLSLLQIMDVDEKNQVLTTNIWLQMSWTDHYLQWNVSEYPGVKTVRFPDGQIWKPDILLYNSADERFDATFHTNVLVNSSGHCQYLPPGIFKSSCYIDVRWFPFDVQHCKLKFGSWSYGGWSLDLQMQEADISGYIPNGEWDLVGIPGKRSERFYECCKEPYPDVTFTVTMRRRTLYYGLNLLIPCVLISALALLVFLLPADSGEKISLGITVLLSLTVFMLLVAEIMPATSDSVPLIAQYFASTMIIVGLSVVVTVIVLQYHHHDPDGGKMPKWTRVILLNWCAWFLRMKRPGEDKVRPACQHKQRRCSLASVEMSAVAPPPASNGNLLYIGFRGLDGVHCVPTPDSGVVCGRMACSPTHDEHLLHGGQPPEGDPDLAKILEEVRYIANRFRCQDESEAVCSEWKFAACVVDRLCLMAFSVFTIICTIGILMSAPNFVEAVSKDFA
Experiment: not given
Assay type: binding
Conditions: above described assay provided by Cerep
For Cc1ccc(-c2ccc(OC3CN4CCC3CC4)cn2)cc1 (centres unmarked) [AQW051], the Ki was 255 nM.

Target: recombinantly expressed human α7-nAChR (Homo sapiens, UniProt P36544)
Sequence (P36544 23-502): as above
Experiment: not given
Conditions: [125I] α-BTX radioligand, Feuerbach et al., Br. J. Pharmacol., 2014, read-out: Ki (lit); cited from earlier work
In the case of Cc1ccc(-c2ccc(OC3CN4CCC3CC4)cn2)cc1 (centres unmarked) [AQW051], the Ki is listed as 28 nM.

Target: T1, human 5-HT3 serotonin receptors (Homo sapiens, UniProt P46098)
T1 sequence (P46098 24-478): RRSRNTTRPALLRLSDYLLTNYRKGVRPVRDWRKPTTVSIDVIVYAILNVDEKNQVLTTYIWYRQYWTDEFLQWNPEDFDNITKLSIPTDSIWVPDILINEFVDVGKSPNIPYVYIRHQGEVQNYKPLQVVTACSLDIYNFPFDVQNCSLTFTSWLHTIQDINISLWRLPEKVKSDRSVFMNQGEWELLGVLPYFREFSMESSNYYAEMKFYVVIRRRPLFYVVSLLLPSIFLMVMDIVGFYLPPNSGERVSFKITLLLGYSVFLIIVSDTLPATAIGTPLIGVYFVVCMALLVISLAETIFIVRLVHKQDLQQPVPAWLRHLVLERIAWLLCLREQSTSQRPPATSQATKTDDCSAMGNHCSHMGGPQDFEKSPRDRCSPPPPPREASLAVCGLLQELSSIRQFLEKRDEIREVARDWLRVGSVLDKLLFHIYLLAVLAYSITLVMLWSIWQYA
Experiment: [3H]BRL 43694 competition binding assay (Cerep)
Conditions: not given
In the case of Clc1ccc2c(NC3C4CCN(CC4)C34CC4)noc2c1 (racemic) [rac-16, 6-chloro-N-(1′-azaspiro[cyclopropane-1,2′-bicyclo[2.2.2]octan]-3′-yl)benzo[d]isoxazol-3-amine hydrochloride], the Ki is reported as 1800 nM.
For Clc1ccc2c(N[C@@H]3C4CCN(CC4)C34CC4)noc2c1Cl [(R)-19, (R)-6,7-dichloro-N-(1′-azaspiro[cyclopropane-1,2′-bicyclo[2.2.2]octan]-3′-yl)benzo[d]isoxazol-3-amine hydrochloride], the Ki was 100 nM.
Cc1ccc2c(N[C@@H]3C4CCN(CC4)C34CC4)noc2c1Cl [Compound (R)-28, (R)-7-chloro-6-methyl-N-(1′-azaspiro[cyclopropane-1,2′-bicyclo[2.2.2]octan]-3′-yl)benzo[d]isoxazol-3-amine hydrochloride] showed a Ki of 66 nM.

Same assay, conditions: CHO cell membranes expressing human 5-HT3 receptors, [3H]BRL 43694, 120 min at room temperature; read-out: h-5HT3 Ki
With CC1(C)C(Nc2noc3cc(Cl)ccc23)C2CCN1CC2 (racemic) [rac-1, 6-chloro-N-(2,2-dimethylquinuclidin-3-yl)benzo[d]isoxazol-3-amine hydrochloride] the Ki was 2700 nM.
For CC1(C)[C@H](Nc2noc3cc(Cl)ccc23)C2CCN1CC2 [Compound (R)-1, (R)-6-chloro-N-(2,2-dimethylquinuclidin-3-yl)benzo[d]isoxazol-3-amine], the Ki was 2600 nM.
Work on CC1(C)[C@H](Nc2noc3c(F)c(Cl)ccc23)C2CCN1CC2 [Compound (R)-2, (R)-6-chloro-N-(2,2-dimethylquinuclidin-3-yl)-7-fluorobenzo[d]isoxazol-3-amine hydrochloride] yielded a Ki of 3150 nM.
Work on COc1ccc2c(N[C@@H]3C4CCN(CC4)C3(C)C)noc2c1 [Compound (R)-3, (R)—N-(2,2-dimethylquinuclidin-3-yl)-6-methoxybenzo[d]isoxazol-3-amine hydrochloride] yielded a Ki greater than 10000 nM.
With CC1(C)[C@H](Nc2noc3c(Cl)c(Cl)ccc23)C2CCN1CC2 [Compound (R)-4, (R)-6,7-dichloro-N-(2,2-dimethylquinuclidin-3-yl)benzo[d]isoxazol-3-amine hydrochloride] the Ki was 130 nM.
Compound COc1c(Cl)ccc2c(N[C@@H]3C4CCN(CC4)C3(C)C)noc12 [Compound (R)-5, (R)-6-chloro-N-(2,2-dimethylquinuclidin-3-yl)-7-methoxybenzo[d]isoxazol-3-amine hydrochloride] has a Ki of 450 nM.
In the case of Cc1ccc2c(N[C@@H]3C4CCN(CC4)C3(C)C)noc2c1 [Compound (R)-6, (R)—N-(2,2-dimethylquinuclidin-3-yl)-6-methylbenzo[d]isoxazol-3-amine hydrochloride], the Ki is reported as 3500 nM.
Cc1ccc2c(N[C@@H]3C4CCN(CC4)C3(C)C)noc2c1F [Compound (R)-7, (R)—N-(2,2-dimethylquinuclidin-3-yl)-7-fluoro-6-methylbenzo[d]isoxazol-3-amine hydrochloride] gave a Ki of 2100 nM.
Work on CC1(C)[C@H](Nc2noc3c(Cl)c(F)ccc23)C2CCN1CC2 [Compound (R)-8, (R)-7-chloro-N-(2,2-dimethylquinuclidin-3-yl)-6-fluorobenzo[d]isoxazol-3-amine hydrochloride] yielded a Ki of 170 nM.
Compound Cc1cc2onc(N[C@@H]3C4CCN(CC4)C3(C)C)c2cc1F [Compound (R)-9, (R)—N-(2,2-dimethylquinuclidin-3-yl)-5-fluoro-6-methylbenzo[d]isoxazol-3-amine hydrochloride] has a Ki greater than 10000 nM.
For Cc1c(Cl)ccc2c(N[C@@H]3C4CCN(CC4)C3(C)C)noc12 [Compound (R)-10, (R)-6-chloro-N-(2,2-dimethylquinuclidin-3-yl)-7-methylbenzo[d]isoxazol-3-amine hydrochloride], the Ki was 380 nM.
CC1(C)[C@H](Nc2noc3cc(Cl)c(F)cc23)C2CCN1CC2 [Compound (R)-11, (R)-6-chloro-N-(2,2-dimethylquinuclidin-3-yl)-5-fluorobenzo[d]isoxazol-3-amine hydrochloride] showed a Ki greater than 10000 nM.
For CCOc1c(Cl)ccc2c(N[C@@H]3C4CCN(CC4)C3(C)C)noc12 [Compound (R)-12, (R)-6-chloro-N-(2,2-dimethylquinuclidin-3-yl)-7-ethoxybenzo[d]isoxazol-3-amine hydrochloride], the Ki was greater than 10000 nM.
Work on Cc1ccc2c(N[C@@H]3C4CCN(CC4)C3(C)C)noc2c1Cl [Compound (R)-13, (R)-7-chloro-N-(2,2-dimethylquinuclidin-3-yl)-6-methylbenzo[d]isoxazol-3-amine hydrochloride] yielded a Ki of 150 nM.
With CC1(C)[C@H](Nc2noc3c(C(F)(F)F)c(Cl)ccc23)C2CCN1CC2 [Compound (R)-14, (R)-6-chloro-N-(2,2-dimethylquinuclidin-3-yl)-7-(trifluoromethyl)benzo[d]isoxazol-3-amine hydrochloride] the Ki was greater than 10000 nM.
In the case of Clc1ccc2c(N[C@@H]3C4CCN(CC4)C34CC4)noc2c1 [Compound (R)-16, (R)-6-chloro-N-(1′-azaspiro[cyclopropane-1,2′-bicyclo[2.2.2]octan]-3′-yl)benzo[d]isoxazol-3-amine], the Ki is reported as 1630 nM.
For Fc1c(Cl)ccc2c(N[C@@H]3C4CCN(CC4)C34CC4)noc12 [Compound (R)-17, (R)-6-chloro-7-fluoro-N-(1′-azaspiro[cyclopropane-1,2′-bicyclo[2.2.2]octan]-3′-yl)benzo[d]isoxazol-3-amine hydrochloride], the Ki was 920 nM.
Compound COc1ccc2c(N[C@@H]3C4CCN(CC4)C34CC4)noc2c1 [Compound (R)-18, (R)-6-methoxy-N-(1′-azaspiro[cyclopropane-1,2′-bicyclo[2.2.2]octan]-3′-yl)benzo[d]isoxazol-3-amine hydrochloride] has a Ki greater than 10000 nM.
In the case of COc1c(Cl)ccc2c(N[C@@H]3C4CCN(CC4)C34CC4)noc12 [Compound (R)-20, (R)-6-chloro-7-methoxy-N-(1′-azaspiro[cyclopropane-1,2′-bicyclo[2.2.2]octan]-3′-yl)benzo[d]isoxazol-3-amine hydrochloride], the Ki is reported as 200 nM.
Compound Cc1ccc2c(N[C@@H]3C4CCN(CC4)C34CC4)noc2c1 [Compound (R)-21, (R)-6-methyl-N-(1′-azaspiro[cyclopropane-1,2′-bicyclo[2.2.2]octan]-3′-yl) benzo[d]isoxazol-3-amine hydrochloride] has a Ki of 1600 nM.
With Cc1ccc2c(N[C@@H]3C4CCN(CC4)C34CC4)noc2c1F [Compound (R)-22, (R)-7-fluoro-6-methyl-N-(1′-azaspiro[cyclopropane-1,2′-bicyclo[2.2.2]octan]-3′-yl)benzo[d]isoxazol-3-amine hydrochloride] the Ki was 540 nM.
With Fc1ccc2c(N[C@@H]3C4CCN(CC4)C34CC4)noc2c1Cl [Compound (R)-23, (R)-7-chloro-6-fluoro-N-(1′-azaspiro[cyclopropane-1,2′-bicyclo[2.2.2]octan]-3′-yl)benzo[d]isoxazol-3-amine hydrochloride] the Ki was 110 nM.
Cc1cc2onc(N[C@@H]3C4CCN(CC4)C34CC4)c2cc1F [Compound (R)-24, (R)-5-fluoro-6-methyl-N-(1′-azaspiro[cyclopropane-1,2′-bicyclo[2.2.2]octan]-3′-yl) benzo[d]isoxazol-3-amine hydrochloride] gave a Ki of 3100 nM.
In the case of Cc1c(Cl)ccc2c(N[C@@H]3C4CCN(CC4)C34CC4)noc12 [Compound (R)-25, (R)-6-chloro-7-methyl-N-(1′-azaspiro[cyclopropane-1,2′-bicyclo[2.2.2]octan]-3′-yl)benzo[d]isoxazol-3-amine hydrochloride], the Ki is reported as 170 nM.
Fc1cc2c(N[C@@H]3C4CCN(CC4)C34CC4)noc2cc1Cl [Compound (R)-26, (R)-6-chloro-5-fluoro-N-(1′-azaspiro[cyclopropane-1,2′-bicyclo[2.2.2]octan]-3′-yl)benzo[d]isoxazol-3-amine hydrochloride] showed a Ki of 2800 nM.
Compound CCOc1c(Cl)ccc2c(N[C@@H]3C4CCN(CC4)C34CC4)noc12 [Compound (R)-27, (R)-6-chloro-7-ethoxy-N-(1′-azaspiro[cyclopropane-1,2′-bicyclo[2.2.2]octan]-3′-yl)benzo[d]isoxazol-3-amine hydrochloride] has a Ki of 5600 nM.
Work on FC(F)(F)c1c(Cl)ccc2c(N[C@@H]3C4CCN(CC4)C34CC4)noc12 [Compound (R)-29, (R)-6-chloro-N-(1′-azaspiro[cyclopropane-1,2′-bicyclo[2.2.2]octan]-3′-yl)-7-(trifluoromethyl)benzo[d]isoxazol-3-amine hydrochloride] yielded a Ki of 4300 nM.
